pIC50: −log10 of the molar value.
Biological target: T1, human FSH receptor (Homo sapiens, UniProt P23945)
T1 construct: expressed in transfected cells; host or cells: CHO (Chinese Hamster Ovary) cells, stably transfected; cotransfected with a CRE-luciferase reporter
T1 sequence (P23945 18-695): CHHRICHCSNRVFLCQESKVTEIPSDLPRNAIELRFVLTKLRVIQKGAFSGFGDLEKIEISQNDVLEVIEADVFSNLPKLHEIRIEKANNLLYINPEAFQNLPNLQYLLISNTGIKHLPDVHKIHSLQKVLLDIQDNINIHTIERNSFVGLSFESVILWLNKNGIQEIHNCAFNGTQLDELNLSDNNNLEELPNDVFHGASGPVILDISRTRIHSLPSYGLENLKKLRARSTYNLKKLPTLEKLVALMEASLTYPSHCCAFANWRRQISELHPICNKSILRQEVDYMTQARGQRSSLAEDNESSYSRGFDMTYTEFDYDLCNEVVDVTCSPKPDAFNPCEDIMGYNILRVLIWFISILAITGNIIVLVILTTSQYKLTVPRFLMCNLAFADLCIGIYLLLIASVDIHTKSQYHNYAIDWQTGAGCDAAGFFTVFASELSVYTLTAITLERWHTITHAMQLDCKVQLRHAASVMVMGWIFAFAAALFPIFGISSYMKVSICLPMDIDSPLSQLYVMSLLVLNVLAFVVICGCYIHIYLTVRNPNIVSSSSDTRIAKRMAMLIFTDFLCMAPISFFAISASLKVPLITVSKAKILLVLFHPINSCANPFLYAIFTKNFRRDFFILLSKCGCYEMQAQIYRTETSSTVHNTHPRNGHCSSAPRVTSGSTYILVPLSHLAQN
Assay: Antagonistic activity at the human FSH receptor expressed in CHO cells (CRE-luciferase reporter)
Type: cell-based
Details: CHO cells stably transfected with human FSH receptor and CRE-luciferase; with 49 μM recFSH; 4 hours incubation; read-out: IC50 (inhibition of recFSH-induced luciferase stimulation)
Protocol: Antagonistic Activity of Compounds at the Human FSH Receptor Expressed in CHO Cells
Antagonistic activity of the compounds at the human FSH receptor was determined in Chinese Hamster Ovary (CHO) cells stably transfected with the human FSH receptor and cotransfected to with a cAMP responsive element (CRE)/promoter directing the expression of a firefly luciferase reporter gene. Binding of the compounds to the Gs protein-coupled FSH receptor will result in an increase of cAMP, which in turn will induce an increased transactivation of the luciferase reporter. The cells (7,500 cells/well of a 384 well plate) were incubated in Dulbecco′ minimal essential F12 modified medium (Invitrogen), supplemented with 1 μg/ml bovine insulin, 5 μg/ml human apo-transferrin, 100 U/ml penicillin G and 100 μg/ml streptomycin with the test compounds (concentration between 0.316 nM and 10.0 μM) in duplicate together with […] recFSH (which, at this concentration in the absence of test compound, induces 80% of the maximal luciferase stimulation) in a humidified atmosphere (95%) at 5-7% CO2 and 37° C. The final concentration of DMSO was 1%. After 4 hours of incubation, plates were allowed to adjust to room temperature for 1 hour. Then, SteadyLite (PerkinElmer) solution was added to the wells and cells were allowed to lyse for at least 1 hour at room temperature. Subsequently, luciferase activity was measured in a luminescence counter. The signal is expressed as counts per second (cps). The IC50 (concentration of test compound causing half-maximal (50%) inhibition of the maximally attainable inhibition of the luciferase stimulation by the compound) and efficacy of the compounds were determined using the software program MathIQ (version 2.3, ID Business Solutions Limited).

pIC50, 6.00 to 7.00:
COc1cc2c(cc1OC)-c1cc(C(=O)N[C@@H](CO)Cc3c[nH]c4ccccc34)c(OC(C)C#N)cc1CC2 (stereo partly drawn) [Example 12, 2-(1-cyanoethoxy)-N—((R)-1-hydroxy-3-(1H-indol-3-yl)propan-2-yl)-6,7-dimethoxy-9,10-dihydrophenanthrene-3-carboxamide]
C=CCOc1cc2c(cc1C(=O)N[C@@H](CO)Cc1c[nH]c3ccccc13)-c1cc(OC)c(OC)cc1CC2 [Example 13, (R)-2-(allyloxy)-N-(1-hydroxy-3-(1H-indol-3-yl)propan-2-yl)-6,7-dimethoxy-9,10-dihydrophenanthrene-3-carboxamide]
COc1cc2c(cc1OC)-c1cc(C(=O)N[C@@H](CO)Cc3c[nH]c4ccccc34)c(OC(F)C(N)=O)cc1CC2 (stereo partly drawn) [Example 14, 2-(2-amino-1-fluoro-2-oxoethoxy)-N—((R)-1-hydroxy-3-(1H-indol-3-yl)propan-2-yl)-6,7-dimethoxy-9,10-dihydrophenanthrene-3-carboxamide]
COCCOc1cc2c(cc1C(=O)N[C@@H](CO)Cc1c[nH]c3ccccc13)-c1cc(OC)c(OC)cc1CC2 [Example 15, (R)—N-(1-hydroxy-3-(1H-indol-3-yl)propan-2-yl)-6,7-dimethoxy-2-(2-methoxyethoxy)-9,10-dihydrophenanthrene-3-carboxamide]

pIC50, > 7.00:
COc1cc2c(c(OC)c1OC)CCc1cc(-c3ccccc3)c(C(=O)N[C@@H](CO)Cc3c[nH]c4ccccc34)cc1-2 [Example 1, (R)—N-(1-hydroxy-3-(1H-indol-3-yl)propan-2-yl)-6,7,8-trimethoxy-2-phenyl-9,10-dihydrophenanthrene-3-carboxamide]
COc1cc2c(c(OC)c1OC)CCc1cc(-c3ccccc3F)c(C(=O)N[C@@H](CO)Cc3c[nH]c4ccccc34)cc1-2 [Example 2, 2-(2-fluorophenyl)-N—((R)-1-hydroxy-3-(1H-indol-3-yl)propan-2-yl)-6,7,8-trimethoxy-9,10-dihydrophenanthrene-3-carboxamide]
COc1cc2c(c(OC)c1OC)CCc1cc(-c3cccc(F)c3F)c(C(=O)N[C@@H](CO)Cc3c[nH]c4ccccc34)cc1-2 [Example 3, 2-(2,3-difluorophenyl)-N—((R)-1-hydroxy-3-(1H-indol-3-yl)propan-2-yl)-6,7,8-trimethoxy-9,10-dihydrophenanthrene-3-carboxamide]
COc1cc2c(c(OC)c1OC)CCc1cc(-c3cccs3)c(C(=O)N[C@@H](CO)Cc3c[nH]c4ccccc34)cc1-2 [Example 4, (R)—N-(1-hydroxy-3-(1H-indol-3-yl)propan-2-yl)-6,7,8-trimethoxy-2-(thiophen-2-v)-9,10-dihydrophenanthrene-3-carboxamide]
COc1cc2c(c(OC)c1OC)CCc1cc(-c3sccc3C)c(C(=O)N[C@@H](CO)Cc3c[nH]c4ccccc34)cc1-2 [Example 5, N—((R)-1-hydroxy-3-(1H-indol-3-yl)propan-2-yl)-6,7,8-trimethoxy-2-(3-methylthiophen-2-yl)-9,10-dihydrophenanthrene-3-carboxamide]
COc1cc2c(c(OC)c1OC)CCc1cc(-c3cccnc3OC)c(C(=O)N[C@@H](CO)Cc3c[nH]c4ccccc34)cc1-2 [Example 6, N—((R)-1-hydroxy-3-(1H-indol-3-yl)propan-2-yl)-6,7,8-trimethoxy-2-(2-methoxypyrdin-3-v)-9,10-dihydrophenanthrene-3-carboxamide]
COc1cc2c(c(OC)c1OC)CCc1cc(OC(C)C)c(C(=O)N[C@@H](CO)Cc3c[nH]c4ccccc34)cc1-2 [Example 7, (R)—N-(1-hydroxy-3-(1H-indol-3-yl)propan-2-yl)-2-isopropoxy-6,7,8-trimethoxy-9,10-dihydrophenanthrene-3-carboxamide]
COc1cc2c(cc1OC)-c1cc(C(=O)N[C@@H](CO)Cc3c[nH]c4ccccc34)c(OCC3CC3)cc1CC2 [Example 8, (R)-2-(cyclopropylmethoxy)-N-(1-hydroxy-3-(1H-indol-3-yl)propan-2-yl)-6,7-dimethoxy-9,10-dihydrophenanthrene-3-carboxamide]
COc1cc2c(cc1OC)-c1cc(C(=O)N[C@@H](CO)Cc3c[nH]c4ccccc34)c(OC3CCCC3)cc1CC2 [Example 9, (R)-2-(cyclopentyloxy)-N-(1-hydroxy-3-(1H-indol-3-yl)propan-2-yl)-6,7-dimethoxy-9,10-dihydrophenanthrene-3-carboxamide]
CCCC(C)Oc1cc2c(cc1C(=O)N[C@@H](CO)Cc1c[nH]c3ccccc13)-c1cc(OC)c(OC)cc1CC2 (stereo partly drawn) [Example 10, N—((R)-1-hydroxy-3-(1H-indol-3-yl)propan-2-yl)-6,7-dimethoxy-2-(pentan-2-yloxy)-9,10-dihydrophenanthrene-3-carboxamide]
COc1cc2c(cc1OC)-c1cc(C(=O)N[C@@H](CO)Cc3c[nH]c4ccccc34)c(OC(F)F)cc1CC2 [Example 11, (R)-2-(difluoromethoxy)-N-(1-hydroxy-3-(1H-indol-3-yl)propan-2-yl)-6,7-dimethoxy-9,10-dihydrophenanthrene-3-carboxamide]
COc1cc2c(cc1OC)-c1cc(C(=O)N[C@@H](CO)Cc3c[nH]c4ccccc34)c(-c3ccccc3F)cc1CC2 [Example 18, 2-(2-fluorophenyl)-N—((R)-1-hydroxy-3-(1H-indol-3-yl)propan-2-yl)-6,7-dimethoxy-9,10-dihydrophenanthrene-3-carboxamide]
COc1cc2c(cc1OC)-c1cc(C(=O)N[C@@H](CO)Cc3c[nH]c4ccccc34)c(-c3c(F)cc(O)cc3F)cc1CC2 [Example 19, (R)-2-(2,6-difluoro-4-hydroxyphenyl)-N-(1-hydroxy-3-(1H-indol-3-yl)propan-2-yl)-6,7-dimethoxy-9,10-dihydrophenanthrene-3-carboxamide]
COc1cc2c(cc1OC)-c1cc(C(=O)N[C@@H](CO)Cc3c[nH]c4ccccc34)c(-c3ccc(N)cc3F)cc1CC2 [Example 20, 2-(4-amino-2-fluorophenyl)-N—((R)-1-hydroxy-3-(1H-indol-3-yl)propan-2-yl)-6,7-dimethoxy-9,10-dihydrophenanthrene-3-carboxamide]
COc1cc2c(cc1OC)-c1cc(C(=O)N[C@@H](CO)Cc3c[nH]c4ccccc34)c(-c3ccncc3F)cc1CC2 [Example 21, 2-(3-fluoropyridin-4-yl)-N—((R)-1-hydroxy-3-(1H-indol-3-yl)propan-2-yl)-6,7-dimethoxy-9,10-dihydrophenanthrene-3-carboxamide]
COc1cc2c(cc1OC)-c1cc(C(=O)N[C@@H](CO)Cc3c[nH]c4ccccc34)c(C(C)=C(C)C)cc1CC2 [Example 22, (R)—N-(1-hydroxy-3-(1H-indol-3-yl)propan-2-yl)-6,7-dimethoxy-2-(3-methylbut-2-en-2-yl)-9,10-dihydrophenanthrene-3-carboxamide]
COc1cc2c(cc1OC)-c1cc(C(=O)N[C@@H](CO)Cc3c[nH]c4ccccc34)c(-c3ccc(Cl)s3)cc1CC2 [Example 23, (R)-2-(5-chlorothiophen-2-yl)-N-(1-hydroxy-3-(1H-indol-3-yl)propan-2-yl)-6,7-dimethoxy-9,10-dihydrophenanthrene-3-carboxamide]
COc1cc2c(cc1OC)-c1cc(C(=O)N[C@@H](CO)Cc3c[nH]c4ccccc34)c(-c3ccco3)cc1CC2 [Example 24, (R)-2-(furan-2-yl)-N-(1-hydroxy-3-(1H-indol-3-yl)propan-2-yl)-6,7-dimethoxy-9,10-dihydrophenanthrene-3-carboxamide]
COc1cccc(-c2cc3c(cc2C(=O)N[C@@H](CO)Cc2c[nH]c4ccccc24)-c2cc(OC)c(OC)cc2CC3)c1 [Example 25, (R)—N-(1-hydroxy-3-(1H-indol-3-v)propan-2-v)-6,7-dimethoxy-2-(3-methoxyphenyl)-9,10-dihydrophenanthrene-3-carboxamide]
